pIC50: −log10 of the molar value.

The test system of the first assay is Primary human T-cells. Nature of the assay: Primary Human T-Cell Proliferation Assay Stimulated with IL-2 (CellTiter-Glo). The settings on record: primary human T-cell proliferation stimulated with IL-2; read-out: IC50, Example 42. It is filed as cell-based. In short, it runs like this:
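IC50 derived from CellTiter-Glo ATP signal after 72 hours of IL-2-driven proliferation at 37° C. Cells: primary human T-cells from blood, stimulated beforehand 3-4 days on anti-CD3/anti-CD28 with IL-2, then rested from IL-2 before compound exposure in duplicate; IL-2-free wells served as unstimulated control.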
In general terms: Cellular ATP, detected with luciferase, serves as a proxy for viable cell number.
In general, pIC50 refers to the negative decadic logarithm of the IC50, by convention in mol/L. As for `Cc1cc(Nc2nc(Nc3ccc(S(N)(=O)=O)cc3)ncc2F)cc(C)c1OC(C)C(N)=O` (racemic) [Compound I-122, Racemic N4-[4-(1-Aminocarbonyl)ethoxy-3,5-dimethyl]phenyl-N2-(4-aminosulfonyl)phenyl-5-fluoro-2,4-pyrimidinediamine], the negative logarithm of the IC50 (pIC50) is 5.46.

As to `CC(C)c1ccc(Nc2ncc(F)c(Nc3ccc(OCC#N)cc3)n2)cc1S(N)(=O)=O` [Compound I-8, N2-(3-Aminosulfonyl-4-iso-propylphenyl)-N4-(4-cyanomethyleneoxyphenyl)-5-fluoro-2,4-pyrimidinediamine], the negative logarithm of the IC50 (pIC50) is 6.76.

Regarding `C[Si](C)(C)C#Cc1cnc(Nc2cccc(S(N)(=O)=O)c2)nc1Nc1ccc(OCC#N)cc1` [Compound I-15, N2-(3-Aminosulfonylphenyl)-N4-(4-cyanomethyleneoxyphenyl)-5-trimethylsilylacetylene-2,4-pyrimidinediamine], the pIC50 is 5.93.

In the case of `Cc1cc(Nc2nc(Nc3ccc(S(N)(=O)=O)cc3)ncc2F)ccc1OCC(N)=O` [Compound I-113, N4-(4-Aminocarbonylmethoxy-3-methyl)phenyl-N2-(4-aminosulfonyl)phenyl-5-fluoro-2,4-pyrimidinediamine], the pIC50 is 5.77.

Take `Cc1ccc(Nc2ncc(F)c(Nc3ccc(OC(C)C(N)=O)cc3)n2)cc1S(N)(=O)=O` (stereo not drawn) [Compound I-118, N4-[4-(1-Aminocarbonyl)ethoxy]phenyl-N2-(3-aminosulfonyl-4-methyl)phenyl-5-fluoro-2,4-pyrimidinediamine]: the negative-log IC50 (pIC50) was 6.25.

With `CC(C)(Oc1ccc(Nc2nc(Nc3cccc(S(N)(=O)=O)c3)ncc2F)cc1)C(N)=O` [Compound I-126, N4-[4-(1-Aminocarbonyl-1-methyl)ethoxy]phenyl-N2-(3-aminosulfonyl)phenyl-5-fluoro-2,4-pyrimidinediamine], the negative-log IC50 (pIC50) was 6.21.

As to `Cc1ccc(Nc2ncc(F)c(Nc3ccc(OC(C)(C)C(N)=O)cc3)n2)cc1S(N)(=O)=O` [Compound I-127, N4-[4-(1-Aminocarbonyl-1-methyl)ethoxy]phenyl-N2-(3-aminosulfonyl-4-methyl)phenyl-5-fluoro-2,4-pyrimidinediamine], the pIC50 is 6.29.

Take `Cc1ccc(Nc2ncc(F)c(Nc3ccc(OCc4ccccn4)cc3)n2)cc1S(N)(=O)=O` [Compound I-160, N2-(3-Aminosulfonyl-4-methylphenyl)-5-fluoro-N4-[4-(2-pyridinyl)methyleneoxyphenyl]-2,4-pyrimidinediamine]: the pIC50 was 6.60.

With `NS(=O)(=O)c1ccc(Nc2ncc(F)c(Nc3ccc(OCc4ccccn4)cc3)n2)cc1` [Compound I-163, N2-(4-Aminosulfonylphenyl)-5-fluoro-N4-[4-(2-pyridinyl)methyleneoxyphenyl]-2,4-pyrimidinediamine], the negative-log IC50 (pIC50) is 6.36.

With `CCN(CC)CCNS(=O)(=O)c1ccc(Nc2ncc(F)c(Nc3ccc(OCc4ccccn4)cc3)n2)cc1` [Compound I-165, N2-[4-(2-N,N-Diethylaminoethyl)aminosulfonylphenyl)-5-fluoro-N4-[4-(2-pyridinyl)methyleneoxyphenyl]-2,4-pyrimidinediamine], the negative-log IC50 (pIC50) was 6.35.

Staying with this assay, now noted: primary human T-cells stimulated with IL-2, proliferation; read-out: IC50, Example 42.
As to `Cc1ccc(Nc2ncc(F)c(Nc3ccc4c(c3)CC(C(=O)N(C)C)O4)n2)cc1S(N)(=O)=O` (racemic) [VII-26, Racemic N2-(3-Aminosulfonyl-4-methylphenyl)-N4-[2-(N,N-dimethylaminocarbonyl)-2,3-dihydrobenzofuran-5-yl]-5-fluoro-2,4-pyrimidinediamine], the negative-log IC50 (pIC50) was 5.92.

`CN(C)C(=O)C1Cc2cc(Nc3nc(Nc4ccc(Cl)c(S(N)(=O)=O)c4)ncc3F)ccc2O1` (racemic) [VII-27, Racemic N2-(3-Aminosulfonyl-4-chlorophenyl)-N4-[2-(N,N-dimethylaminocarbonyl)-2,3-dihydrobenzofuran-5-yl]-5-fluoro-2,4-pyrimidinediamine]: the pIC50 was 5.69.

(Values after patent US11827628B2, “Compositions and methods for inhibition of the JAK pathway” (Rigel Pharmaceuticals, Inc., priority 2005, dated 2023).)
